Results published in US4399286A, “Antiarrhythmic phenethylpiperidine compounds” (Mead Johnson & Company, priority 1981, dated 1983).

Tests used:
[1] = tested on: chloroform-induced arrhythmia; assay: inhibition of chloroform-induced arrhythmia in the mouse (J. W. Lawson method); assay type: in vivo; conditions: ip, intraperitoneal administration, read-out: ED50, prevention of chloroform-induced arrhythmia
From the text: 2. In the mouse, another in vivo test involves the inhibition of chloroform-induced arrhythmia according to the method of J. W. Lawson, Journal of Pharmacology and Experimental Therapeutics, 160, 22 (1968).

rabbit atrium = assay: in vitro rabbit atrium test, steady state refractory period; conditions: rabbit left atrium, Chenoweth's solution, 30° C., stimulated at 30/minute, five minute interval
Procedure: 3. […] In this test, the left atrium is placed in Chenoweth's solution warmed to 30° C. and irrigated with 95% oxygen:5% carbon dioxide. The lower end of the atrium is attached to a small hook fixed in the bath and the upper end is connected to a transducer to record contractile activity. The atrium is electrically stimulated at a basic rate of 30/minute by employing square wave pulses of 10 millisecond duration at 1.2 to 1.5 times threshold voltage. A test compound is introduced into the bath and the test repeated after a five minute interval. A dose-response relationship is obtained with additional doses of the test compound. […] This value is designated the EC50.

Row | EC50 (effective concentration which reduces to 50% the maximal increase in the steady state refractory period of the atrium) (rabbit atrium) [µg/mL] | Structure (SMILES) | ED50 [1] [mg/kg]
1 | 1.5 | CN1CCCCC1CCc1ccccc1NC(=O)Nc1ccccc1 (stereo not drawn) [Example 1, 2-[2-(1-Methyl-2-piperidinyl)ethyl]carbanilide] | 23
2 | 29 | COc1ccc(NC(=O)Nc2ccccc2CCC2CCCCN2C)cc1 (stereo not drawn) [Example 2, 4'-Methoxy-2-[2-(1-methyl-2-piperidinyl)ethyl]carbanilide] | 46
3 | 10 | COc1ccc(C(=N)Nc2ccccc2CCC2CCCCN2C)cc1 (stereo not drawn) [Example 15, N-[2-[2-(1-Methyl-2-piperidinyl)ethyl]phenyl]-p-anisamidine] | 

Row | Structure (SMILES) | EC50 (effective concentration which reduces to 50% the maximal increase in the steady state refractory period of the atrium) (rabbit atrium) [µg/mL] | ED50 [1] [mg/kg]
4 | CN1CCCCC1CCc1ccccc1NC(=S)Nc1ccccc1 (stereo not drawn) [Example 9, 2-[2-(1-Methyl-2-piperidinyl)ethyl]thiocarbanilide] | 5.9 | 
